Assay results published in ChEMBL document CHEMBL1201862, “PubChem BioAssay data set” (2004).
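Assay format: 96-well plates, 48-hour exposure. Abbreviation: GI50, concentration required for 50% inhibition of growth.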 Calls of active or inactive are those of the source. Rule as the data show it: active = GI50 up to about 1.1 µM and inactive = higher.

Tests used:
Assay in all cases: DTP human tumour cell line panel, 48 h
SR = tested on: SR
M14 = tested on: M14
IGROV-1 = tested on: IGROV-1
NCI-H460 = tested on: NCI-H460
EKVX = tested on: EKVX
Malme-3M = tested on: Malme-3M
LOX IMVI = tested on: LOX IMVI
CAKI-1 = tested on: CAKI-1
SK-MEL-28 = tested on: SK-MEL-28
SK-OV-3 = tested on: SK-OV-3
NCI-H522 = tested on: NCI-H522
A498 = tested on: A498
OVCAR-4 = tested on: OVCAR-4
SF-295 = tested on: SF-295
CCRF-CEM = tested on: CCRF-CEM
HOP-92 = tested on: HOP-92
HCC 2998 = tested on: HCC 2998
SN12C = tested on: SN12C
DU-145 = tested on: DU-145

Compound	GI50 (SR)	GI50 (M14)	GI50 (IGROV-1)	GI50 (NCI-H460)	GI50 (EKVX)	GI50 (Malme-3M)	GI50 (LOX IMVI)	GI50 (CAKI-1)	GI50 (SK-MEL-28)	GI50 (SK-OV-3)	GI50 (NCI-H522)	GI50 (A498)	GI50 (OVCAR-4)	GI50 (SF-295)	GI50 (CCRF-CEM)	GI50 (HOP-92)	GI50 (HCC 2998)	GI50 (SN12C)	GI50 (DU-145)
CC(=O)Nc1ccc(C2C(C(=O)Nc3ccccc3C)=C(C)NC(C)=C2C(=O)Nc2ccccc2C)cc1	20.1 µM (inactive)	> 100 µM (inactive)	> 100 µM (inactive)	> 100 µM (inactive)	> 100 µM (inactive)	> 100 µM (inactive)	> 100 µM (inactive)	> 100 µM (inactive)	> 100 µM (inactive)	> 100 µM (inactive)	> 100 µM (inactive)	> 100 µM (inactive)	> 100 µM (inactive)	> 100 µM (inactive)	> 100 µM (inactive)	> 100 µM (inactive)	> 100 µM (inactive)	> 100 µM (inactive)	
CCOC(=O)CCC(NC(=O)c1ccc(NCc2ccc3nc(-c4ccccc4)c(Cl)nc3c2)cc1)C(=O)OCC (configuration not stated)	13.5 µM (inactive)	16.4 µM (inactive)	27.9 µM (inactive)	27.7 µM (inactive)	46.3 µM (inactive)	13 µM (inactive)	26.1 µM (inactive)	30.6 µM (inactive)	> 10 µM (inactive)	> 100 µM (inactive)	19.5 µM (inactive)	24.5 µM (inactive)	20.9 µM (inactive)	76.2 µM (inactive)	25.6 µM (inactive)	9.95 µM (inactive)	92.3 µM (inactive)	41.1 µM (inactive)	
NC(=O)C(=O)N/N=C(\CC1(O)C(=O)Nc2ccccc21)c1ccc2ccccc2c1 (configuration not stated)	18.2 µM (inactive)	32.7 µM (inactive)	40.5 µM (inactive)	34 µM (inactive)	33.1 µM (inactive)	61.7 µM (inactive)	30.3 µM (inactive)	35.2 µM (inactive)	26.9 µM (inactive)	46.9 µM (inactive)	18.7 µM (inactive)	17.9 µM (inactive)	37.1 µM (inactive)	37.9 µM (inactive)	20.3 µM (inactive)	39 µM (inactive)	41.5 µM (inactive)	26.3 µM (inactive)	
CC#CCCCC1(C)CCNC1=S (configuration not stated)	> 10 µM (inactive)	> 10 µM (inactive)		> 10 µM (inactive)	> 10 µM (inactive)	> 10 µM (inactive)	> 10 µM (inactive)			> 10 µM (inactive)	> 10 µM (inactive)		> 10 µM (inactive)	> 10 µM (inactive)	> 10 µM (inactive)	> 10 µM (inactive)	> 10 µM (inactive)	> 10 µM (inactive)	> 10 µM (inactive)
CCc1c(-c2coc(CC/C(C)=C/c3ccccc3)n2)oc(OC)c(C)c1=O	< 0.01 µM (active)	34.8 µM (inactive)	> 83.8 µM (inactive)	18.7 µM (inactive)	25.4 µM (inactive)	> 59.8 µM (inactive)	15.1 µM (inactive)	> 52.2 µM (inactive)	> 100 µM (inactive)	32.7 µM (inactive)	0.209 µM (active)	99.8 µM (inactive)	> 39 µM (inactive)	1.77 µM (inactive)	14.9 µM (inactive)	34.6 µM (inactive)	78.7 µM (inactive)	> 42.1 µM (inactive)	
c1ccc2[nH]c3[nH]c4[nH]c5ccccc5[nH]c4[nH]c3[nH]c2c1	> 100 µM (inactive)	> 100 µM (inactive)	> 100 µM (inactive)	> 100 µM (inactive)	> 100 µM (inactive)	> 100 µM (inactive)	> 100 µM (inactive)	> 100 µM (inactive)	> 100 µM (inactive)	> 100 µM (inactive)	> 100 µM (inactive)	> 100 µM (inactive)		66.2 µM (inactive)	> 100 µM (inactive)		> 100 µM (inactive)	> 100 µM (inactive)	> 100 µM (inactive)
COC(=O)C1[C@@H](C(=O)OC)C12C=Cc1ccccc1C=C2 (some centres not stated)	> 100 µM (inactive)	> 100 µM (inactive)	> 100 µM (inactive)	> 100 µM (inactive)	> 100 µM (inactive)	> 100 µM (inactive)	> 100 µM (inactive)		> 100 µM (inactive)	> 100 µM (inactive)	> 100 µM (inactive)	38.5 µM (inactive)		> 100 µM (inactive)	> 100 µM (inactive)	> 100 µM (inactive)	> 100 µM (inactive)	> 100 µM (inactive)	
COC(=O)C1C(=O)O[C@@H](c2ccc(OC)cc2OC)C1C(=O)OC (some centres not stated)	> 100 µM (inactive)	> 100 µM (inactive)	> 100 µM (inactive)	> 100 µM (inactive)	> 100 µM (inactive)	> 100 µM (inactive)	> 100 µM (inactive)	> 100 µM (inactive)	> 100 µM (inactive)	> 100 µM (inactive)		> 100 µM (inactive)	> 100 µM (inactive)	> 100 µM (inactive)	> 100 µM (inactive)	> 100 µM (inactive)	> 100 µM (inactive)	> 100 µM (inactive)	
